The values that follow come from PubChem BioAssay AID2068 (Sanford-Burnham Center for Chemical Genomics, 2009).

The target in the test is Tyrosine-protein phosphatase non-receptor type 7 (Homo sapiens) (UniProt P35236). Description: redox-dependent HePTP inhibition, mechanism study, biochemical, fluorescence (AID 2068). The settings on record: recombinant HePTP, fluorescent phosphatase assay, redox-state modulation.
Tyrosine-protein phosphatase non-receptor type 7 (Homo sapiens), sequence (P35236 whole entry, looked up): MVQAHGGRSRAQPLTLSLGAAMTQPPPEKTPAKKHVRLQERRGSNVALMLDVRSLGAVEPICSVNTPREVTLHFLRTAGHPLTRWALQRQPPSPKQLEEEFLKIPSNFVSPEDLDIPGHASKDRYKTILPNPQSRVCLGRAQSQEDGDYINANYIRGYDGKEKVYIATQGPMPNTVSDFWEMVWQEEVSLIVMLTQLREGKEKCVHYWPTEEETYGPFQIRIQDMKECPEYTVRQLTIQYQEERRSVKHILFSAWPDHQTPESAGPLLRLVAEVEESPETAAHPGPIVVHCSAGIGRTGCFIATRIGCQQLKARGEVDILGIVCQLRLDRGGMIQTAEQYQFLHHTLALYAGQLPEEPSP

Broadly, the IC50 is the concentration at which inhibition is half-maximal. As to `O=C(O)CSc1cc(C(=O)c2ccccc2O)cn2c(=O)c3c(-c4ccccc4)csc3nc12`, the half-maximal inhibitory concentration (IC50) is 1.75 µM.
